Read-outs that look alike come from different tables or passages of the source.
Experiments:
thoracic aorta = assay: Action to the aorta of guinea pig (relaxation of contracted spiral samples); set-up: species or system Hartley guinea pigs; settings: Cavia porcellus, 37° C.
Excerpt: Hartley guinea pigs (body weight of 300-500 g) were rendered unconscious fainted by knocking their head and fixed upwardly. A thoracic aorta was taken out to prepare spiral samples, each having size of about 2×25 mm. The sample was suspended in a Magnus tube under a load of about 1 g and upper end of the sample was connected through a silk thread to a FD pick-up to record a change in isometric tension.
Composition of Krebs-Henseleit solution:
Prior to the experiment, the sample in the Magnus tube was left to stand, as it was, for 60 to 90 minutes and in such period of time, the Krebs-Henseleit solution was exchanged to fresh one at an interval of 20 to 30 minutes.
When the contraction of the sample became constant, the compound to be tested was gradually added in a amount starting at a concentration of 10^-8, to […] to observe the contraction of the sample. Finally, papaverine was added therein, so as to make its final concentration of 2×10^-5 g/ml, to check and record also the relaxing reaction or atony caused by the papaverine.

right atrium = assay: Action to heart of guinea pig: right atrium (pulsations); set-up: species or system Hartley guinea pigs; settings: right atrium, 32°±1° C.; for inhibition at 100 µM: Cavia porcellus, read-out: Pulsation;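 on all read-outs here: Dash means no recognizable influence on pulsation rate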
Experimental: (§1) Hartley guinea pigs (body weight of 300-400 g) were rendered unconscious by knocking their head and fixed upwardly to exenterate their heart. […] The vessel was previously filled with the Krebs-Henseleit solution and the said mixed gas was continuously fed therein.
(§2) Samples were prepared by separating from a ventricular muscle a right and left atrium, along an auricloventricular furrow or groove from the center-line of the right and left auricles.
A contraction of the sample, due to a compound to be tested, was recorded through an FD pick-up. Concurrently, pulsations were input to a measuring unit to count and record number of the pulsations.

left atrium = assay: Action to heart of guinea pig: left atrium (contraction power); set-up: species or system Hartley guinea pigs; settings: left atrium, 32°±1° C.
Experimental: as §1, §2
The atrium was driven by contacting it with a platinum bipolar electrode attached to the cellfin and by stimulating the same with a rectangular pulse (1 Hz, 1 msec, 10 V). A movement of the sample was recorded by connecting the sample to a recorder through a silk thread and a FD pick-up.

[1] = tested on: blood pressure and cardiac pulsation; assay: Influences upon the blood pressure and cardiac pulsation in guinea pigs; assay type: in vivo, Hartley guinea pigs; settings: i.v.
Excerpt: Influences of compounds according to the invention upon the blood pressure and cardiac pulsation were checked with use of Hartley guinea pigs, as experimental animal.

[2] = contraction by KCl 2.5×10^-2 M, read-out: IC50 KCl contraction (50% relaxing)
[3] = contraction by norepinephrine 10^-6 g/ml, read-out: IC50 N.E. contraction (50% relaxing)
[4] = 10 mg/kg, Example 17 marked (*) p < 0.001
[5] = 10 mg/kg, Examples 16 and 17 marked (*) p < 0.001

Structure (SMILES) | IC50 (thoracic aorta; [2]) [µM] | IC50 (thoracic aorta; [3]) [µM] | Pulsation (right atrium; 10^-5 (M)) | inhibition at 100 µM (right atrium; 10^-4 (M)) [%] | Contraction (left atrium; 10^-4 (M)) | Contraction (left atrium; 10^-5 (M)) | Change in blood pressure ([1]; 3 mg/kg) [%] | Change in cardiac pulsation ([1]; 3 mg/kg) [%] | Change in cardiac pulsation [1, 4] [%] | Change in blood pressure [1, 5] [%] | inhibition at 100 µM (left atrium; Cavia porcellus, 10^-4 (M), read-out: Contraction) [%] | inhibition at 10 µM (left atrium; Cavia porcellus, 10^-5 (M), read-out: Contraction) [%] | Pulsation (right atrium; 10^-4 (M))
CCNC(=O)[C@@H]1C[C@]2(NC(=O)N(CCCN3CCC(O)CC3)C2=O)c2cc(F)ccc2O1 [Example 16, (2S,4S)-N-Ethyl-1'-[3-(4-hydroxypiperidin-1-yl)propyl]-6-fluoro-2',5'-dioxospiro[chroman-4,4'-imidaxolidine]-2-carboxamide] | 59 | 5 | - | 10 to 20 | - | - | -4.0 ± 4.0 | -1.2 ± 1.2 | -4.7 ± 4.6 | -21.3 ± 2.4 |  |  | 
CCCCNC(=O)[C@@H]1C[C@]2(NC(=O)N(CCCN3CCC(O)CC3)C2=O)c2cc(F)ccc2O1 [Example 17, (2S,4S)-N-Butyl-1'-[3-(4-hydroxypiperidin-1-yl)propyl]-6-fluoro-2',5'-dioxospiro[chroman-4,4'-imidazolidine]-2-carboxamide] | 1 | 30 | - | 10 to 20 |  |  | -3.0 ± 3.0 | -1.1 ± 1.1 | -48.9 ± 2.2 | -43.8 ± 4.9 | > 20 | 10 to 20 | 
NC(=O)[C@@H]1C[C@]2(NC(=O)N(CCCN3CCC(O)CC3)C2=O)c2cc(F)ccc2O1 [Example 15, (2S,4S)-1'-[3-(4-Hydroxypiperidin-1-yl)propyl]-6-fluoro-2',5'-dioxospiro[chroman-4,4'-imidazolidine]-2-carboxamide] | 8 | 2 | - |  | - | - | -2.6 ± 1.8 | 0.0 ± 0.0 | -5.4 ± 2.9 | -12.2 ± 5.6 |  |  | -
